# Measurements taken from ChEMBL document CHEMBL3525934 (Drug Metab Dispos, 2013).
# Assays:
# Type in all cases: ADME
# Details in all cases: 0.5 h
# Cytochrome P450 2C18 [1] = biological target: T1, Cytochrome P450 2C18 (Homo sapiens, UniProt P33260); assay: Drug metabolism in supersomes expressing human recombinant CYP2C18 assessed as enzyme-mediated clozapine-N-oxide metabolite formation at 10 uM after 30 mins measured per nmol of P450 by HPLC analysis
# T1 sequence (P33260 whole entry): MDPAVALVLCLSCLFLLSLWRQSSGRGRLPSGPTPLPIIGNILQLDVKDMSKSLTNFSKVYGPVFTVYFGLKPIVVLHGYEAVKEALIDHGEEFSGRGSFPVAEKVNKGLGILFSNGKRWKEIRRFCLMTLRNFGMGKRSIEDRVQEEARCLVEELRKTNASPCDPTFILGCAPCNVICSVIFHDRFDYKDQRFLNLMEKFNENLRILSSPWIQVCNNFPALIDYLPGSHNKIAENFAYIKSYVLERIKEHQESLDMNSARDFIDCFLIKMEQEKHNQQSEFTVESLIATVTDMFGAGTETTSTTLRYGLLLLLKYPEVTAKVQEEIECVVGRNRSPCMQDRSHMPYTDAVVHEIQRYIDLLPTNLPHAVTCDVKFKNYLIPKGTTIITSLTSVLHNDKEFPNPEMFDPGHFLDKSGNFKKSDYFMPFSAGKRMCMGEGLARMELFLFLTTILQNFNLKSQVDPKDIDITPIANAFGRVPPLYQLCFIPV
# Cytochrome P450 1A1 [2] = biological target: T2, Cytochrome P450 1A1 (Homo sapiens, UniProt P04798); assay: Drug metabolism in supersomes expressing human recombinant CYP1A1 assessed as enzyme-mediated clozapine-N-oxide metabolite formation at 100 uM after 30 mins measured per nmol of P450 by HPLC analysis
# T2 sequence (P04798 whole entry): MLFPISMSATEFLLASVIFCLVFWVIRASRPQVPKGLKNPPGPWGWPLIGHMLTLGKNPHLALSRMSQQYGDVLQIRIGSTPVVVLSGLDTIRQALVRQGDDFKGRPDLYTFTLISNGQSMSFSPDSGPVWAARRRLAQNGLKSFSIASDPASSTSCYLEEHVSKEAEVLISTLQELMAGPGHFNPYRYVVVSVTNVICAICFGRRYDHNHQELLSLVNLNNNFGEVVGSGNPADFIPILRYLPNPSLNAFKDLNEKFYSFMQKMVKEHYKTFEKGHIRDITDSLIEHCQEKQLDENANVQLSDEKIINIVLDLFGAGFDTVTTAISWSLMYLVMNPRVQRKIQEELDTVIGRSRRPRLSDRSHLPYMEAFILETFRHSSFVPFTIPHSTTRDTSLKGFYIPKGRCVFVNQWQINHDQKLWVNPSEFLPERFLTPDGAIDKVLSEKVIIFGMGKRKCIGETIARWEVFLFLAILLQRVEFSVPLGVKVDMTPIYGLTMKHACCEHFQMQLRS
# Cytochrome P450 2C9 = Cytochrome P450 2C9 (Homo sapiens, UniProt P11712); assay: Drug metabolism in supersomes expressing human recombinant CYP2C9 assessed as enzyme-mediated clozapine-N-oxide metabolite formation at 100 uM after 30 mins measured per nmol of P450 by HPLC analysis
# Sequence of Cytochrome P450 2C9 (P11712 whole entry): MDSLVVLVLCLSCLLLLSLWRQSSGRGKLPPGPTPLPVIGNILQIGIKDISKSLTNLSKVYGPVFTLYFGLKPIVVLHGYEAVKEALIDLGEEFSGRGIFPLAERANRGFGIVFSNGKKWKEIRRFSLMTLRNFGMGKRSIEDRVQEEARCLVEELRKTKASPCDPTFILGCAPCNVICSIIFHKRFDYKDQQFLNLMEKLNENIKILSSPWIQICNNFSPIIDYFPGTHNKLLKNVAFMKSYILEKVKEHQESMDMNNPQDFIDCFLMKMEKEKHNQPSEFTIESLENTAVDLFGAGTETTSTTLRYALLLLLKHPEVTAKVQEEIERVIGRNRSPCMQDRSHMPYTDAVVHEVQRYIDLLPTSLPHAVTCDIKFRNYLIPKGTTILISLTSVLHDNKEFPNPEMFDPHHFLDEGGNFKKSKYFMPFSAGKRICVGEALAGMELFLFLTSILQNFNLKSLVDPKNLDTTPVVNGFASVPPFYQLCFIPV
# Cytochrome P450 2C8 [3] = biological target: T3, Cytochrome P450 2C8 (Homo sapiens, UniProt P10632); assay: Drug metabolism in supersomes expressing human recombinant CYP2C8 assessed as enzyme-mediated cyanide adduct formation at 100 uM after 30 mins measured per nmol of P450 by HPLC analysis in presence of KCN
# T3 sequence (P10632 whole entry): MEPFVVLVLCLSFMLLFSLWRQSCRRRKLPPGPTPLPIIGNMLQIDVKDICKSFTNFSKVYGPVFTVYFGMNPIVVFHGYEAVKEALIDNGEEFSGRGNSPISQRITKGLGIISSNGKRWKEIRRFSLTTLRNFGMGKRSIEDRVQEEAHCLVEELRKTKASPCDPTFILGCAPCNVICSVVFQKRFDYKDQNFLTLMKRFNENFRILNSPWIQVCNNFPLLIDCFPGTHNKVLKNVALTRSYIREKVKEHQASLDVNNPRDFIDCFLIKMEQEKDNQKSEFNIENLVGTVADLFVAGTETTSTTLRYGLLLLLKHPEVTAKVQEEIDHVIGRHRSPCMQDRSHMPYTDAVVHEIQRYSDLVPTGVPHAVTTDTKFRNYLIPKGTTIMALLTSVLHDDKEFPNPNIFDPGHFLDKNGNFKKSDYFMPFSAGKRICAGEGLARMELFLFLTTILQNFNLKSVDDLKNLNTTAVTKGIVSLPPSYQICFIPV
# Cytochrome P450 1A2 = biological target: T4, Cytochrome P450 1A2 (Homo sapiens, UniProt P05177); assay: Drug metabolism in supersomes expressing human recombinant CYP1A2 assessed as enzyme-mediated total GSH conjugate formation at 100 uM after 30 mins measured per nmol of P450 by HPLC analysis in presence of GSH and hGST P1-1
# T4 sequence (P05177 whole entry): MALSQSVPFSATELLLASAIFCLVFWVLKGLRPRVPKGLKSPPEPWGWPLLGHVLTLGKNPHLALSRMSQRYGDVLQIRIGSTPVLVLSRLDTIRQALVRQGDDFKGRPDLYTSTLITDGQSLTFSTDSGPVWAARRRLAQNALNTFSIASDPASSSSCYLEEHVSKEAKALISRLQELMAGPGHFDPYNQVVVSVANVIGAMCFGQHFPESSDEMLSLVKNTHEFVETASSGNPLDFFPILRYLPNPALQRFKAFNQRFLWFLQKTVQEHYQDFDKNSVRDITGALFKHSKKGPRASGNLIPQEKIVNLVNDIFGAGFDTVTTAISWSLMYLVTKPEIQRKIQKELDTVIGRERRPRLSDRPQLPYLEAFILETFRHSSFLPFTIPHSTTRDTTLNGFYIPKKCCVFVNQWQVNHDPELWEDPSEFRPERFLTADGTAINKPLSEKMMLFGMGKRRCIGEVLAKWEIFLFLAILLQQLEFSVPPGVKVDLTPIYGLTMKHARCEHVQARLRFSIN
# Cytochrome P450 2C18 [4] = biological target: T1, Cytochrome P450 2C18; assay: Drug metabolism in supersomes expressing human recombinant CYP2C18 assessed as enzyme-mediated N-desmethylclozapine metabolite formation at 10 uM after 30 mins measured per nmol of P450 by HPLC analysis
# Cytochrome P450 2C8 [5] = biological target: T3, Cytochrome P450 2C8; assay: Drug metabolism in supersomes expressing human recombinant CYP2C8 assessed as enzyme-mediated clozapine-N-oxide metabolite formation at 10 uM after 30 mins measured per nmol of P450 by HPLC analysis
# Cytochrome P450 2C8 [6] = biological target: T3, Cytochrome P450 2C8; assay: Drug metabolism in supersomes expressing human recombinant CYP2C8 assessed as enzyme-mediated clozapine-N-oxide metabolite formation at 100 uM after 30 mins measured per nmol of P450 by HPLC analysis
# Cytochrome P450 1A1 [7] = biological target: T2, Cytochrome P450 1A1; assay: Drug metabolism in supersomes expressing human recombinant CYP1A1 assessed as enzyme-mediated clozapine-N-oxide metabolite formation at 10 uM after 30 mins measured per nmol of P450 by HPLC analysis
# Cytochrome P450 2C19 = Cytochrome P450 2C19 (Homo sapiens, UniProt P33261); assay: Drug metabolism in supersomes expressing human recombinant CYP2C19 assessed as enzyme-mediated clozapine-N-oxide metabolite formation at 10 uM after 30 mins measured per nmol of P450 by HPLC analysis
# Sequence of Cytochrome P450 2C19 (P33261 whole entry): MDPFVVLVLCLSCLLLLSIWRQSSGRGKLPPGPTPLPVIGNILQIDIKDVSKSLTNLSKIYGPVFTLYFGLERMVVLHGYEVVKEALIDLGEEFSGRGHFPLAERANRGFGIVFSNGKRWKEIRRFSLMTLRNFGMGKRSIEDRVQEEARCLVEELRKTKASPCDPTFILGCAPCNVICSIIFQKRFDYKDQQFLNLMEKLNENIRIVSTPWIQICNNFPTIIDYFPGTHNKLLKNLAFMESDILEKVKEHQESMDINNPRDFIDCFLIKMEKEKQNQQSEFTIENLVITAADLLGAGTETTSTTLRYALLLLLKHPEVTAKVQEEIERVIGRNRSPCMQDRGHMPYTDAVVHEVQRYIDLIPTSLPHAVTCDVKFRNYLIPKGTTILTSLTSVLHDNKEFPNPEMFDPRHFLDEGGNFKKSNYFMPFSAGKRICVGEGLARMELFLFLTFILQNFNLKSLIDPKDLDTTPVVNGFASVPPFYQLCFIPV
smiles,measurement,setting,value
CN1CCN(C2=Nc3cc(Cl)ccc3Nc3ccccc32)CC1 [CLOZAPINE],Drug metabolism,Cytochrome P450 2C18 [1],0.025 nmol/min/nmol P450
same,Drug metabolism,Cytochrome P450 1A1 [2],0.2 nmol/min
same,Drug metabolism,Cytochrome P450 2C9,0.057 nmol/min
same,Drug metabolism,Cytochrome P450 2C8 [3],0.058 nmol/min
same,Drug metabolism,Cytochrome P450 1A2,0.25 nmol/min
same,Drug metabolism,Cytochrome P450 2C18 [4],4.08 nmol/min/nmol P450
same,Drug metabolism,Cytochrome P450 2C8 [5],0.1 nmol/min
same,Drug metabolism,Cytochrome P450 2C8 [6],0.075 nmol/min/nmol P450
same,Drug metabolism,Cytochrome P450 1A1 [7],0.24 nmol/min
same,Drug metabolism,Cytochrome P450 2C19,0.71 nmol/min/nmol P450
